The values below come from patent US11072628B2, “Nucleoside analogues for the treatment of parasitic infections” (UNIVERSITEIT GENT, priority 2017, dated 2021).

As a reminder, the EC50 is the concentration at which the effect is half-maximal.

Each structure is given as a SMILES string. Entries after “also recorded” stand apart in the source; their conditions may differ. Where only a bound is given, the exact number is not on record here.

The nature of data set [1]: Cytotoxicity against MRC-5 fibroblasts. The following applies: human, MRC-5 fibroblasts, cytotoxicity. The procedure: Cytotoxicity was assayed against MRC-5 fibroblasts. Results are depicted in Tables 4 and 5.
For data set [2], the system named is T. b. brucei Squib 427. Description: In vivo antiparasitic activity in mice (T. brucei; acute model). Set-up: species or system Trypanosoma brucei brucei. The procedure: The test compound of the invention was formulated in 10% (V/V) PEG400 in water at 2 mg/mL and was freshly prepared at every administration. The test compound was administered orally (PO) b.i.d. for 5 days at 25 mg/kg. The reference drug suramin was formulated in PBS at 2.5 mg/mL and administered s.i.d. IP for 5 days at 10 mg/kg. Treatment was initiated ½ hour prior to the IP infection.

The next data set has as its system T. brucei AnTAR1 PPYRE9. Description: In vivo antiparasitic activity in mice (T. brucei; stage-II disease model). The following applies: treatment from 21 dpi for 5 days; 25 mg/kg PO b.i.d. or 25, 12.5 or 6.25 mg/kg s.i.d. Set-up: species or system Trypanosoma brucei. The procedure:
The test compound, FH7429_D was formulated in 5% (V/V) Tween80 at 4 mg/mL and administered according to body weight (25 mg/kg bid., oral gavage) for 5 days. Treatment commenced at 21 dpi, in mice which had positive CNS involvement (BLI). Two reference groups: vehicle control as well as melarsoprol (120 mg/kg, s.i.d. topical for 3 days) were included. Topical melarsoprol formulation was prepared as following: 3.6% melarsprol in propylene glycol was used to prepare a 1.5% hydroxypropylcellulose (HPC) gel.
Parasitemia analysis was performed by microscopic evaluation of tail vein blood samples at 21 (before treatment initiation), 25, 28, 32 and 35 dpi. Bioluminescent imaging (BLI) was performed at 7, 14, 21, 28, 35, 43, 50 and 53 dpi. BLI experiments were performed as following: D-luciferin (15 mg/kg) was injected intraperitoneally, and mice were subsequently anaesthetized using isoflurane. The luminescent signal was measured over a 5 second as well as 5-minute exposure time, both for the ventral as well as the dorsal side of the animals.

Data set [3] concerns T. b. rhodesiense STIB-900. Description: In vitro drug susceptibility, T. b. rhodesiense STIB-900 (resazurin). The data set is classed as cell-based, Trypanosoma brucei rhodesiense. The following applies: Trypanosoma brucei, RHODESIENSE, read-out: T. brucei rhod. EC50. The procedure: (§1) All trypanosome strains were cultured in the standard HMI-9 medium supplemented with 10% fetal bovine serum (FBS) at 37° C. in a 5% CO2 atmosphere.
(In general: Alamar Blue is a resazurin reagent that responds to reducing activity.)

The next data set relates to T. brucei Squib 427. The data set is described as follows: In vitro drug susceptibility, T. brucei Squib 427 (resazurin). The class given is cell-based, Trypanosoma brucei brucei. To be noted: Trypanosoma brucei, read-out: T. brucei brucei EC50, Table 1; average of 2-4 independent determinations. The procedure:
as §1

Data set [4] deals with T. cruzi Tulahuen CL2 β galactosidase strain. Description: T. cruzi Tulahuen CL2 β galactosidase strain on MRC-5SV2 cells (CPRG). The data set is classed as cell-based, Trypanosoma cruzi. The following applies: Trypanosoma cruzi, TULAHUEN, MRC-5 SV2; Table 2; average of 2-3 independent replicates. The procedure:
All cultures and assays were conducted at 37° C./5% CO2. […] The results were expressed as % reduction in parasite burdens compared to control wells from which an EC50 was calculated.

Another data set deals with T. cruzi (Y-strain). Description: In vivo antiparasitic activity in mice (T. cruzi Y-strain). To be noted: 25 mg/kg PO b.i.d. for five days starting at 5 dpi. Set-up: species or system Trypanosoma cruzi. The procedure:
The animals were allowed to acclimate for 7 days before starting the experiments. […] Age-matched non-infected mice were maintained under identical conditions. The animals were divided into the following groups (n=6): uninfected (non-infected and non-treated), untreated (infected but treated only with vehicle), and treated (infected and treated with the compounds). […] Formulations were prepared freshly before each administration. Only mice with positive parasitemia were used in the infected groups. Parasitemia was individually checked by direct microscopic counting of the number of parasites in 5 μl of blood (Panel A—FIG. 5), and mice were checked for mortality daily until 30 days post-treatment (corresponding to 40 dpi). Mortality is expressed as the percent cumulative mortality (CM; Panel B—FIG. 5).

Data set [5] deals with T. vaginalis trophozoites (metronidazole susceptible G3 strain). The data set is described as follows: Trichomonas vaginalis in vitro assay. The data set is classed as cell-based. The following applies: Trichomonas vaginalis; Table 3; average of 2-5 independent replicates. The procedure:
T. vaginalis trophozoites (metronidazole susceptible G3 strain) were grown in vitro in modified Diamond's media (MDM) with 10% heat inactivated horse serum (HIHS) acquired from Gibco Life Technologies. After medium preparation, the pH was adjusted to 6.3-6.4 employing 1.0 M aq. HCl. Parasites cultures were passaged every day by taking 1 mL of cell culture into a 25 mL bottle of fresh media to ensure the cells were kept at the appropriate concentration of ˜2×10^6 cells/mL. The culture flasks were filled completely and tightly capped to provide the cells with an anaerobic environment. The parasites were maintained in incubation at 37° C. When culturing in multiwell plates, the plates were sealed with Nescofilm® and inserted in BD GasPak EZ pouches (BD Diagnostics, UK) in order to create anaerobic conditions. Assays were performed with 5×10^4 trophozoites/well (100 μL) to which compound dilutions were added (100 μL). Outside wells of columns and rows were filled with 200 μL of sterile water. Plates were sealed with Nescofilm® and incubated under anaerobic conditions as described above. After 24 h, 30 μL of assay dye solution (resorufin) was added, and incubated for 1-2 h before being read using Fluostar Optima (BMG Labtech, UK) at an excitation wavelength of 544 nm and an emission wavelength of 620 nm.

Data set [6] concerns T. b. brucei Squib 427. The following applies: comparison statement, not tested here; cited from earlier work.

With `Nc1ncnc2c1ccn2[C@@H]1O[C@H](CO)C[C@H]1O` [FH7429_D, 4-amino-N7-(3′-deoxy-β-D-ribofuranosyl)-pyrrolo[2,3-d]pyrimidine], the EC50 in data set [1] (MRC-5 EC50, Table 1) was more than 64000 nM; in data set [1] (MRC-5 EC50, Table 2), more than 64000 nM; in data set [3], 0.5 nM; with T. brucei Squib 427, 50 nM; in data set [4] it was more than 64000 nM. Also, the “parasitological cure (sub-inoculation in naive mice)” value in the data set on T. b. brucei Squib 427 [2] (animals surviving until day 21 post infection) is reported as “total parasitological cure; also recorded: able cure an acute infection”. The “clinical symptoms of trypanosomiasis / parasitemia” value in the data set with T. b. brucei Squib 427 [2] (infected mice, 5 consecutive days, test compound 25 mg/kg PO b.i.d. (FH7429_D also 10 mg/kg s.i.d. IP), suramin 10 mg/kg) is given as “no clinical symptoms of trypanosomiasis were observed”. Further, the adverse drug effects entry in the data set with T. b. brucei Squib 427 [2] (mice, 5 days treatment) is on record as “No signs of adverse drug effects were observed”. For the same compound, in the data set with T. brucei AnTAR1 PPYRE9, the “cure in stage-II HAT model” value is “considered cured”. Besides, the “parasitemia (BLI or tail vein blood analysis)” value in the data set with T. brucei AnTAR1 PPYRE9 is given as “did not show any signs of parasitemia from 28 dpi onwards”.
`Nc1ncnc2c1c(-c1ccc(Cl)cc1)cn2[C@@H]1O[C@H](CO)C[C@H]1O` [FH8512, 4-amino-5-(4-chlorophenyl)-N7-(3′-deoxy-β-D-ribofuranosyl)-pyrrolo[2,3-d]pyrimidine]: the concentration giving a half-maximal response (EC50) in data set [1] (MRC-5 EC50, Table 1) turned out to be 19100 nM; in data set [1] (MRC-5 EC50, Table 2), 19100 nM; in [3] it was 1800 nM; in the data set on T. brucei Squib 427, 2300 nM; in data set [4], 50 nM; in [5] it was 170 nM. The blood parasitemia entry in the data set with T. cruzi (Y-strain) is recorded as “suppress blood parasitemia”. The “mortality caused by the infection” value in the data set with T. cruzi (Y-strain) was “protect animals from mortality”.
As to `Nc1ncnc2c1ncn2[C@@H]1O[C@H](CO)C[C@H]1O` [cordycepin, 3′-deoxy-adenosine], the “clearance of T. brucei infection as a monotherapy” value in the data set on T. b. brucei Squib 427 [6] is “unable to clear the infection”.
